# Results taken from ChEMBL document CHEMBL1144217, “Design, synthesis and characterization of podocarpate derivatives as openers of BK channels” (Bioorg Med Chem Lett, 2008).
# Molecular target: Calcium-activated potassium channel subunit alpha-1 (Homo sapiens) (UniProt Q12791)
# Assay: Activation of human BKalpha channel expressed in CHOK1 cells assessed as increase in ionic current at 30 uM relative to control
# Format: cell-based
# Details: CHO-K1
# Calcium-activated potassium channel subunit alpha-1 (Homo sapiens), sequence (Q12791 whole entry): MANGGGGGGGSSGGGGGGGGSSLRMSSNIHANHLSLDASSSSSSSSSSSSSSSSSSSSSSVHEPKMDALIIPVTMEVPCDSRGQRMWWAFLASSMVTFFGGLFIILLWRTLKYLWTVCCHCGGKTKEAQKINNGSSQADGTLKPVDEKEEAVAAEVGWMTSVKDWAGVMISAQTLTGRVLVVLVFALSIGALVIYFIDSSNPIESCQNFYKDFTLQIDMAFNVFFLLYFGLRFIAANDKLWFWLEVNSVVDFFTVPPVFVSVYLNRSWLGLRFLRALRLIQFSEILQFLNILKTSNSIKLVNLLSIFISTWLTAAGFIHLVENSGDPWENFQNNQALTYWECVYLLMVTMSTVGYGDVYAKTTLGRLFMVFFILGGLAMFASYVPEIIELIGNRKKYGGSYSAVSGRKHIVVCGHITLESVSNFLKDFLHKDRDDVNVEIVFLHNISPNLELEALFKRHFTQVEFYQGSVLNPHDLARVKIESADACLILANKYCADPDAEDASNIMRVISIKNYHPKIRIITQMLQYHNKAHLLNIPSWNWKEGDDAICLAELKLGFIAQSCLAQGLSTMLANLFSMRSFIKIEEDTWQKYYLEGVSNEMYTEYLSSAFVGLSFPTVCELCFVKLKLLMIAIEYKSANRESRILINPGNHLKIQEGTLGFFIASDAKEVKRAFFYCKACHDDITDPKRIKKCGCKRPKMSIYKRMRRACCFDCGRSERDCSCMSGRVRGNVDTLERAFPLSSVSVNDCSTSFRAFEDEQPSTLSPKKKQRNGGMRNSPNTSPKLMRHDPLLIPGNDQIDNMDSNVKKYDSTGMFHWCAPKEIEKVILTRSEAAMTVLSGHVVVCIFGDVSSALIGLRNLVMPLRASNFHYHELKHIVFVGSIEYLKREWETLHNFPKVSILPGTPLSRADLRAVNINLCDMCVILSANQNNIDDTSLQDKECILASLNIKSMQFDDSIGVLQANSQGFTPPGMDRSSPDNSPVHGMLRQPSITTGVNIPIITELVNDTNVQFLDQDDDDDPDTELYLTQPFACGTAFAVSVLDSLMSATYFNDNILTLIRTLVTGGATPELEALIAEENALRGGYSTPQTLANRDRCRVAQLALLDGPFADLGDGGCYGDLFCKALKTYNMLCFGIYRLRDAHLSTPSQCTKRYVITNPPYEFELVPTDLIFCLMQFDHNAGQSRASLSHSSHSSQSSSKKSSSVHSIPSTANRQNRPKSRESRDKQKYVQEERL
row,Activity [%],Structure (SMILES)
1,139,C[C@]1(C(=O)O)CCC[C@]2(C)c3cc(OCc4ccc(OC(F)(F)F)cc4)ccc3CC[C@@H]12
2,88.9,Cc1ccccc1COc1ccc2c(c1)[C@@]1(C)CCC[C@](C)(C(=O)O)[C@@H]1CC2
3,116,C[C@]1(C(=O)O)CCC[C@]2(C)c3cc(OCc4ccc(C#N)cc4)ccc3CC[C@@H]12
4,151,Cc1ccc(COc2ccc3c(c2)[C@@]2(C)CCC[C@](C)(C(=O)O)[C@@H]2CC3)cc1
5,125,CC(C)c1ccc(COc2ccc3c(c2)[C@@]2(C)CCC[C@](C)(C(=O)O)[C@@H]2CC3)cc1
6,109,COc1ccc(COc2ccc3c(c2)[C@@]2(C)CCC[C@](C)(C(=O)O)[C@@H]2CC3)cc1
7,124,C[C@]1(C(=O)O)CCC[C@]2(C)c3cc(OCCOCc4ccccc4)ccc3CC[C@@H]12
8,209,C[C@]1(C(=O)O)CCC[C@]2(C)c3cc(OCc4ccccc4)ccc3CC[C@@H]12
9,121,C[C@]1(C(=O)O)CCC[C@]2(C)c3cc(OCc4ccc(Cl)cc4)ccc3CC[C@@H]12
10,116,CC(C)(C)c1ccc(COc2ccc3c(c2)[C@@]2(C)CCC[C@](C)(C(=O)O)[C@@H]2CC3)cc1
11,130,Cc1cc(C)cc(COc2ccc3c(c2)[C@@]2(C)CCC[C@](C)(C(=O)O)[C@@H]2CC3)c1
12,122,C[C@]1(C(=O)O)CCC[C@]2(C)c3cc(OCc4ccc5ccccc5c4)ccc3CC[C@@H]12
13,185,C[C@]1(C(=O)O)CCC[C@]2(C)c3cc(OCc4ccc(C(F)(F)F)cc4)ccc3CC[C@@H]12

# The next lines start with the compound.
row,Structure (SMILES),Activity [%]
1,C[C@]1(C(=O)O)CCC[C@]2(C)c3cc(OCCCc4ccccc4)ccc3CC[C@@H]12,244
2,CCCOc1ccc2c(c1)[C@@]1(C)CCC[C@](C)(C(=O)O)[C@@H]1CC2,170
3,C=CCOc1ccc2c(c1)[C@@]1(C)CCC[C@](C)(C(=O)O)[C@@H]1CC2,148
4,CC(C)Oc1ccc2c(c1)[C@@]1(C)CCC[C@](C)(C(=O)O)[C@@H]1CC2,134
5,COC(=O)[C@@]1(C)CCC[C@]2(C)c3cc(OCCCc4ccccc4)ccc3CC[C@@H]12,116
6,C[C@]1(C(=O)O)CCC[C@]2(C)c3cc(O)ccc3CC[C@@H]12,207
7,C[C@]1(C(=O)O)CCC[C@]2(C)c3cc(OCC4CCCCC4)ccc3CC[C@@H]12,124
8,C[C@]1(C(=O)O)CCC[C@]2(C)c3cc(OCCN4CCCCC4)ccc3CC[C@@H]12,103
9,COC(=O)[C@@]1(C)CCC[C@]2(C)c3cc(O)ccc3CC[C@@H]12,118
10,COc1ccc2c(c1)[C@@]1(C)CCC[C@](C)(C(=O)O)[C@@H]1CC2,124
